Assay results published in paper PMC4452589, “An evaluation of the brain distribution of [^11C]GSK1034702, a muscarinic-1 (M1) positive allosteric modulator in the living human brain using positron emission tomography” (EJNMMI Research, 2014).
Read-outs that look alike come from different tables or passages of the source.

Tests used:
[1] = [11C]GSK1034702 PET brain distribution and kinetics in anaesthetised baboons; type: in vivo, Papio anubis; details: for Kp: baboon (Papio anubis), intravenous
Procedure: The brain distribution of carbon-11-labelled GSK1034702 ([^11C]GSK1034702) was conducted in two anaesthetised baboons (P. anubis), to assess its transport across the BBB. These studies were conducted at Columbia University Medical Center, New York. The study was approved by the Columbia University Institutional Animal Care and Use Committee (IACUC).
Two adult baboons were studied over a 6-week period. Subject A (an ovariectomised female) received two injections of [^11C]GSK1034702 22 days apart, while subject B (male) received a single injection of [^11C]GSK1034702. Each experimental session included a single dynamic PET scan.
Fasted animals were immobilised with intramuscular ketamine injection (10 mg/kg), and anesthetised with 1.8% isoflurane via an endotracheal tube. Vital signs were monitored every 10 min and the temperature was kept constant at 37°C with heated water blankets. An intravenous (IV) perfusion line was used for hydration and injection of the radiotracer. A catheter was inserted in a femoral artery for arterial blood sampling. The head was positioned at the centre of the field of view. PET imaging was performed with the ECAT EXACT HR + PET scanner (Siemens/CTI, Knoxville, TN) operating in 3D mode (in-plane resolution of 4.3, 4.5, 5.4 and 8.0 mm, full width at half maximum (FWHM) at a distance of 0, 1, 10 and 20 cm from the centre of the field of view). A 15-min transmission scan was obtained prior to radiotracer injection for attenuation correction. […] Following IV administration (45-s bolus) of a single dose of [^11C]GSK1034702 dynamic PET, arterial blood and metabolite data were acquired for 120 min (subject A) for the first two scans and only 60 min for the third scan due to a technical issue (subject B).
Regions of interest (ROIs) were drawn on previously acquired T1-weighted anatomical magnetic resonance imaging (MRI) brain images for each animal. The following regions were defined: cerebellum, hippocampus, thalamus, striatum, frontal cortex and occipital cortex. Regions were drawn in the MEDx (Sensor Systems Inc., Sterling, VA, USA) software environment. PET emission data were attenuation-corrected using the transmission scan, and frames were reconstructed using a Shepp filter (cutoff 0.5 cycles/projection rays). Decay-corrected PET images were registered to the MRI images by maximisation of mutual information using SPM2 and Matlab software. Regional boundaries were transferred from the MRI to the individual registered PET frames, and time-activity curves were measured in the MEDx environment. Right and left regions were averaged. For a given animal, the same regions were used for all scans.
Brain time activity curves (TACs) were corrected for the contribution of blood activity assuming a 5% blood volume. A metabolite-corrected arterial input function and regional TACs were fitted to a compartmental model to derive regional VT estimates as well as a whole brain VT.

[2] = plasma free fraction by ultrafiltration, baboon arterial plasma; type: in vitro ADME; details: baboon (Papio anubis), mean ± SD, read-out: free fraction in plasma (fP)
Procedure: For all non-human primate studies, the non-protein-bound fraction of [^11C]GSK1034702 in arterial plasma (fP) was quantified using the following methodology: triplicate 200 μL aliquots of plasma collected before injection were mixed with [^11C]GSK1034702, pipetted into ultrafiltration units (Centrifree; Amicon, Danvers, MA, USA) and centrifuged at room temperature (20 min at 4,000 rpm). At the end of centrifugation, plasma and ultrafiltrate activities were counted and fP was calculated as the ratio of ultrafiltrate to total activity concentrations.

[3] = both sexes, whole brain, Papio anubis, mean ± SD of three scans, two-tissue compartmental model, read-out: whole brain VT

Cc1cc(F)c2[nH]c(=O)n(C3CCN(C4CCOCC4)CC3)c2c1 [GSK1034702]
Kp ([1]; both sexes, cortex, primate, as worded, read-out: VT measured in the primate cortex): 4 | Kp [1, 3]: 3.97 | fraction unbound at 20 min [2]: 0.54

[11CH3]c1cc(F)c2[nH]c(=O)n(C3CCN(C4CCOCC4)CC3)c2c1 [[^11C]GSK1034702]
Regional K1 ([1]; Cerebellum, Subject A Exam 1, baboon): 0.46 mL.cm^-3.min^-1 | Regional K1 ([1]; Cerebellum, Subject A Exam 2, baboon): 0.57 mL.cm^-3.min^-1 | Regional K1 ([1]; Cerebellum, Subject B Exam 1, baboon): 0.35 mL.cm^-3.min^-1 | Regional K1 ([1]; Frontal Ctx, Subject A Exam 1, baboon): 0.39 mL.cm^-3.min^-1 | Regional K1 ([1]; Frontal Ctx, Subject A Exam 2, baboon): 0.53 mL.cm^-3.min^-1 | Regional K1 ([1]; Frontal Ctx, Subject B Exam 1, baboon): 0.32 mL.cm^-3.min^-1 | Regional K1 ([1]; Hippocampus, Subject A Exam 1, baboon): 0.39 mL.cm^-3.min^-1 | Regional K1 ([1]; Hippocampus, Subject A Exam 2, baboon): 0.60 mL.cm^-3.min^-1 | Regional K1 ([1]; Hippocampus, Subject B Exam 1, baboon): 0.32 mL.cm^-3.min^-1 | Regional K1 ([1]; Occipital Ctx, Subject A Exam 1, baboon): 0.67 mL.cm^-3.min^-1 | Regional K1 ([1]; Occipital Ctx, Subject A Exam 2, baboon): 0.53 mL.cm^-3.min^-1 | Regional K1 ([1]; Occipital Ctx, Subject B Exam 1, baboon): 0.37 mL.cm^-3.min^-1 | whole brain VT ([1]; Papio anubis, mean ± SD of three scans, two-tissue compartmental model): 3.97 ± 0.38 mL.cm^−3 | Regional K1 ([1]; Striatum, Subject A Exam 1, baboon): 0.39 mL.cm^-3.min^-1 | Regional K1 ([1]; Striatum, Subject A Exam 2, baboon): 0.51 mL.cm^-3.min^-1 | Regional K1 ([1]; Striatum, Subject B Exam 1, baboon): 0.39 mL.cm^-3.min^-1 | Regional K1 ([1]; Thalamus, Subject A Exam 1, baboon): 0.44 mL.cm^-3.min^-1 | Regional K1 ([1]; Thalamus, Subject A Exam 2, baboon): 0.52 mL.cm^-3.min^-1 | Regional K1 ([1]; Thalamus, Subject B Exam 1, baboon): 0.27 mL.cm^-3.min^-1 | Regional K1 ([1]; Whole Brain, Subject A Exam 1, baboon): 0.45 mL.cm^-3.min^-1 | Regional K1 ([1]; Whole Brain, Subject A Exam 2, baboon): 0.50 mL.cm^-3.min^-1 | Regional K1 ([1]; Whole Brain, Subject B Exam 1, baboon): 0.35 mL.cm^-3.min^-1 | Kp [1, 3]: 3.97 | Kp ([1]; female, cerebellum, Cerebellum, Subject A Exam 1, baboon, read-out: Regional V T): 4.07 | Kp ([1]; female, cerebellum, Cerebellum, Subject A Exam 2, baboon, read-out: Regional V T): 3.79 | Kp ([1]; female, frontal cortex, Frontal Ctx, Subject A Exam 1, baboon, read-out: Regional V T): 3.92 | Kp ([1]; female, frontal cortex, Frontal Ctx, Subject A Exam 2, baboon, read-out: Regional V T): 3.73 | Kp ([1]; female, hippocampus, Hippocampus, Subject A Exam 1, baboon, read-out: Regional V T): 4.78 | Kp ([1]; female, hippocampus, Hippocampus, Subject A Exam 2, baboon, read-out: Regional V T): 4.62 | Kp ([1]; female, occipital cortex, Occipital Ctx, Subject A Exam 1, baboon, read-out: Regional V T): 4.49 | Kp ([1]; female, occipital cortex, Occipital Ctx, Subject A Exam 2, baboon, read-out: Regional V T): 4.64 | Kp ([1]; female, striatum, Striatum, Subject A Exam 1, baboon, read-out: Regional V T): 3.86 | Kp ([1]; female, striatum, Striatum, Subject A Exam 2, baboon, read-out: Regional V T): 3.95 | Kp ([1]; female, thalamus, Thalamus, Subject A Exam 1, baboon, read-out: Regional V T): 4.06 | Kp ([1]; female, thalamus, Thalamus, Subject A Exam 2, baboon, read-out: Regional V T): 3.91 | Kp ([1]; female, whole brain, Whole brain, Subject A Exam 1, baboon, read-out: Regional V T): 4.2 | Kp ([1]; female, whole brain, Whole brain, Subject A Exam 2, baboon, read-out: Regional V T): 4.19 | Kp ([1]; male, cerebellum, Cerebellum, Subject B Exam 1, baboon, read-out: Regional V T): 3.09 | Kp ([1]; male, frontal cortex, Frontal Ctx, Subject B Exam 1, baboon, read-out: Regional V T): 3.52 | Kp ([1]; male, hippocampus, Hippocampus, Subject B Exam 1, baboon, read-out: Regional V T): 3.52 | Kp ([1]; male, occipital cortex, Occipital Ctx, Subject B Exam 1, baboon, read-out: Regional V T): 3.89 | Kp ([1]; male, striatum, Striatum, Subject B Exam 1, baboon, read-out: Regional V T): 3.21 | Kp ([1]; male, thalamus, Thalamus, Subject B Exam 1, baboon, read-out: Regional V T): 2.75 | Kp ([1]; male, whole brain, Whole brain, Subject B Exam 1, baboon, read-out: Regional V T): 3.52 | fraction unbound at 20 min [2]: 0.54 ± 0.21
